# Source: ChEMBL document CHEMBL4041531, “Design, synthesis, and biological evaluation of novel 1-oxo-1,2,3,4-tetrahydropyrazino[1,2-a]indole-3-carboxamide analogs in MCF-7 and MDA-MB-468 breast cancer cell lines” (2017)
# Active and inactive are the calls of the source. The rule behind the calls is not given here.
# How the values were obtained:
# [1] = test system: MCF7; test: Cytotoxicity against human MCF7 cells assessed as cell viability at 30 uM after 48 hrs by MTT assay relative to control; assay type: functional; conditions: MCF7, 48 h, read-out: Activity
# [2] = test system: MDA-MB-468; test: Cytotoxicity against gefitinib-resistant human MDA-MB-468 cells assessed as cell viability at 30 uM after 48 hrs by MTT assay relative to control; assay type: functional; conditions: MDA-MB-468, 48 h, read-out: Activity
# [3] = test system: MCF7; test: Cytotoxicity against human MCF7 cells assessed as reduction in cell viability after 48 hrs by MTT assay; assay type: functional; conditions: MCF7, 48 h
# [4] = test system: MDA-MB-468; test: Cytotoxicity against gefitinib-resistant human MDA-MB-468 cells assessed as reduction in cell viability after 48 hrs by MTT assay; assay type: functional; conditions: MDA-MB-468, 48 h
# [5] = test system: MCF7; test: Cytotoxicity against human MCF7 cells assessed as cell viability at 10 uM after 48 hrs by MTT assay relative to control; assay type: functional; conditions: MCF7, 48 h, read-out: Activity
# [6] = test system: MDA-MB-468; test: Cytotoxicity against gefitinib-resistant human MDA-MB-468 cells assessed as cell viability at 10 uM after 48 hrs by MTT assay relative to control; assay type: functional; conditions: MDA-MB-468, 48 h, read-out: Activity
# [7] = Selectivity ratio of GI50 for human MCF7 cells to GI50 for gefitinib-resistant human MDA-MB-468 cells; assay type: functional
# [8] = test system: MCF7; test: Cytotoxicity against human MCF7 cells assessed as reduction in cell viability at 1 uM after 48 hrs in presence of 1 to 10 uM gefitinib by MTT assay; assay type: functional, cell-based
# [9] = test system: MDA-MB-468; test: Cytotoxicity against gefitinib-resistant human MDA-MB-468 cells assessed as cell viability at 10 uM after 48 hrs in presence of 1 uM gefitinib by MTT assay relative to control; assay type: functional
# [10] = test system: MDA-MB-468; test: Cytotoxicity against gefitinib-resistant human MDA-MB-468 cells assessed as cell viability at 3 uM after 48 hrs in presence of 1 uM gefitinib by MTT assay relative to control; assay type: functional
# [11] = test system: MDA-MB-468; test: Cytotoxicity against gefitinib-resistant human MDA-MB-468 cells assessed as cell viability at 1 uM after 48 hrs in presence of 1 uM gefitinib by MTT assay relative to control; assay type: functional; conditions: MDA-MB-468, 48 h, read-out: Activity
# [12] = test system: MCF7; test: Cytotoxicity against human MCF7 cells assessed as cell viability at 1 uM after 48 hrs by MTT assay relative to control; assay type: functional; conditions: MCF7, 48 h, read-out: Activity
# [13] = test system: MCF7; test: Cytotoxicity against human MCF7 cells assessed as cell viability at 3 uM after 48 hrs by MTT assay relative to control; assay type: functional; conditions: MCF7, 48 h, read-out: Activity
# [14] = test system: MDA-MB-468; test: Cytotoxicity against gefitinib-resistant human MDA-MB-468 cells assessed as cell viability at 10 uM after 48 hrs in presence of 3 uM gefitinib by MTT assay relative to control; assay type: functional
# [15] = test system: MDA-MB-468; test: Cytotoxicity against gefitinib-resistant human MDA-MB-468 cells assessed as cell viability at 3 uM after 48 hrs in presence of 3 uM gefitinib by MTT assay relative to control; assay type: functional; conditions: MDA-MB-468, 48 h, read-out: Activity
# [16] = test system: MDA-MB-468; test: Cytotoxicity against gefitinib-resistant human MDA-MB-468 cells assessed as cell viability at 1 uM after 48 hrs in presence of 3 uM gefitinib by MTT assay relative to control; assay type: functional
# [17] = test system: MDA-MB-468; test: Cytotoxicity against gefitinib-resistant human MDA-MB-468 cells assessed as cell viability at 10 uM after 48 hrs in presence of 10 uM gefitinib by MTT assay relative to control; assay type: functional; conditions: MDA-MB-468, 48 h, read-out: Activity
# [18] = test system: MDA-MB-468; test: Cytotoxicity against gefitinib-resistant human MDA-MB-468 cells assessed as cell viability at 3 uM after 48 hrs in presence of 10 uM gefitinib by MTT assay relative to control; assay type: functional
# [19] = test system: MDA-MB-468; test: Cytotoxicity against gefitinib-resistant human MDA-MB-468 cells assessed as cell viability at 1 uM after 48 hrs in presence of 10 uM gefitinib by MTT assay relative to control; assay type: functional
# [20] = test system: MDA-MB-468; conditions: Homo sapiens, at 10 µM
# Description: Inhibition of EGFR in gefitinib-resistant human MDA-MB-468 cells assessed as reduction in Akt phosphorylation at 10 uM after 6 hrs by Western blot method
# [21] = test system: MDA-MB-468; conditions: Homo sapiens, at 10 µM; remark: listed apart in the source
# Description: Inhibition of EGFR in gefitinib-resistant human MDA-MB-468 cells assessed as reduction in Akt phosphorylation at 10 uM after 18 hrs by Western blot method
# [22] = test system: MCF7; test: Potency index, ratio of gefitinib GI50 to compound GI50 for human MCF7 cells; assay type: functional
SMILES,viability at 30 µM [1],viability at 30 µM [2],GI50 [4],other results
O=C1N[C@H](C(=O)NCc2ccc(F)cc2)Cn2c1cc1ccccc12,59.7%,63.1%,,
Cc1cccc(CNC(=O)[C@@H]2Cn3c(cc4ccccc43)C(=O)N2)c1,78.1%,66.3%,,
O=C1N[C@H](C(=O)O)Cn2c1cc1ccccc12,99.7%,76.2%,,
O=C(NCc1ccco1)[C@@H]1Cn2c(cc3ccccc32)C(=O)N1Cc1ccccc1,,,5.2 µM,GI50 [3]: 19.3 µM; viability at 10 µM [5]: 58.5%; viability at 10 µM [6]: 23.3%; RatioGI50 [7]: 3.7; Activity [8]: Active; Activity [9]: 24.3%; Activity [10]: 40.5%; viability at 1 µM [11]: 66.3%; viability at 1 µM [12]: 93.6%; viability at 3 µM [13]: 62.5%; Activity [14]: 19.6%; viability at 3 µM [15]: 34.3%; Activity [16]: 61%; viability at 10 µM [17]: 15.6%; Activity [18]: 23.8%; Activity [19]: 40.8%; inhibition [20]: Active; inhibition [21]: Active
COc1ccc(CNC(=O)[C@@H]2Cn3c(cc4ccccc43)C(=O)N2)cc1,68.8%,74.7%,,
CN1C(=O)c2cc3ccccc3n2C[C@H]1C(=O)NCc1ccco1,,,15 µM,viability at 10 µM [5]: 54.1%; viability at 10 µM [6]: 56.1%
O=C1N[C@H](C(=O)NCc2ccc(C(F)(F)F)cc2)Cn2c1cc1ccccc12,60.2%,70.5%,,
CNC(=O)[C@@H]1Cn2c(cc3ccccc32)C(=O)N1,77.5%,82.6%,,
O=C(NCc1cccc(Cl)c1)[C@@H]1Cn2c(cc3ccccc32)C(=O)N1Cc1ccccc1,,,9.5 µM,GI50 [3]: 8.3 µM; viability at 10 µM [5]: 38.2%; viability at 10 µM [6]: 46.7%
O=C1N[C@H](C(=O)NCc2ccccc2)Cn2c1cc1ccccc12,71.4%,48.8%,28.9 µM,
O=C1N[C@H](C(=O)Nc2ccccc2)Cn2c1cc1ccccc12,87.3%,74.5%,,
COC(=O)[C@@H]1Cn2c(cc3ccccc32)C(=O)N1Cc1ccccc1,,,,viability at 10 µM [5]: 92.6%; viability at 10 µM [6]: 98.8%
O=C(NCc1cccs1)[C@@H]1Cn2c(cc3ccccc32)C(=O)N1Cc1ccccc1,,,3.8 µM,GI50 [3]: 4.6 µM; viability at 10 µM [5]: 35.8%; viability at 10 µM [6]: 18.5%; RatioGI50 [22]: 4.5; inhibition [20]: Active; inhibition [21]: Active
O=C1N[C@H](C(=O)NCc2cccc(C(F)(F)F)c2)Cn2c1cc1ccccc12,59.1%,62.4%,,
O=C(NCc1ccccc1)[C@@H]1Cn2c(cc3ccccc32)C(=O)N1Cc1ccccc1,,,7.6 µM,GI50 [3]: 9.6 µM; viability at 10 µM [5]: 47.1%; viability at 10 µM [6]: 28%
C=CCN1C(=O)c2cc3ccccc3n2C[C@H]1C(=O)NCc1ccco1,,,18.5 µM,viability at 10 µM [5]: 98.2%; viability at 10 µM [6]: 58.4%
Cc1ccc(CNC(=O)[C@@H]2Cn3c(cc4ccccc43)C(=O)N2Cc2ccccc2)o1,,,,viability at 10 µM [5]: 68.7%; viability at 10 µM [6]: 63.1%
CC(C)NC(=O)[C@@H]1Cn2c(cc3ccccc32)C(=O)N1,84.4%,88.1%,,
O=C1N[C@@H](C(=O)NCc2ccccc2)Cn2c1cc1ccccc12,61.8%,45%,24 µM,

SMILES,viability at 30 µM [1],viability at 30 µM [2],GI50 [4],other results
COc1cc2ncnc(Nc3ccc(F)c(Cl)c3)c2cc1OCCCN1CCOCC1 [GEFITINIB],16.2%,6.7%,9.7 µM,GI50 [3]: 20.8 µM; viability at 10 µM [5]: 89.7%; viability at 10 µM [6]: 49.1%; viability at 1 µM [12]: 73.1%; viability at 3 µM [13]: 72.6%
CCCCCCNC(=O)[C@@H]1Cn2c(cc3ccccc32)C(=O)N1,71.2%,61.8%,,
Cc1ccc(CNC(=O)[C@@H]2Cn3c(cc4ccccc43)C(=O)N2)o1,60.2%,43%,,
O=C1N[C@H](C(=O)NCCc2ccc(O)cc2)Cn2c1cc1ccccc12,85.5%,63.1%,,
O=C1N[C@H](C(=O)NCc2ccc(Cl)cc2)Cn2c1cc1ccccc12,66.1%,60.3%,,
Nc1ccc(CNC(=O)[C@@H]2Cn3c(cc4ccccc43)C(=O)N2)cc1,76%,65.4%,,
COC(=O)[C@H]1Cn2c(cc3ccccc32)C(=O)N1,79.7%,82.4%,,
Nc1cccc(CNC(=O)[C@@H]2Cn3c(cc4ccccc43)C(=O)N2)c1,70.5%,67.7%,,
O=C1N[C@H](C(=O)NCc2cccs2)Cn2c1cc1ccccc12,61.7%,39.2%,,
COC(=O)[C@@H]1Cn2c(cc3ccccc32)C(=O)N1,85.1%,102%,,
O=C1N[C@H](C(=O)NC2CCCCC2)Cn2c1cc1ccccc12,80.7%,73.1%,,
Cc1ccc(CNC(=O)[C@@H]2Cn3c(cc4ccccc43)C(=O)N2)cc1,68%,61.5%,,
O=C1N[C@H](C(=O)NCc2ccco2)Cn2c1cc1ccccc12,62.1%,39.7%,23.1 µM,
CCCNC(=O)[C@@H]1Cn2c(cc3ccccc32)C(=O)N1,83.9%,88%,,
C=CCNC(=O)[C@@H]1Cn2c(cc3ccccc32)C(=O)N1,104%,94.7%,,
O=C1N[C@H](C(=O)NCc2cccc(Cl)c2)Cn2c1cc1ccccc12,61.7%,34.8%,23.4 µM,
COc1cccc(CNC(=O)[C@@H]2Cn3c(cc4ccccc43)C(=O)N2)c1,68.6%,70.5%,,
O=C1N[C@@H](C(=O)NCc2ccco2)Cn2c1cc1ccccc12,82.5%,21.2%,15.9 µM,
